Values quoted from earlier work in patent US20110311589A1 (priority 2008, published 2011).

Tested on: helminthiasis
Conditions: in vivo

c1ccc([C@H]2CN3CCSC3=N2)cc1 [Levamisole]
Dosages too low, ineffective in treating helminthiasis: less than 6 mg per kg of body weight
